# Source: ChEMBL document CHEMBL5360558, “Molecular design, synthesis and anticancer activity of new thiopyrano[2,3-d]thiazoles based on 5-hydroxy-1,4-naphthoquinone (juglone)” (Eur J Med Chem, 2023)
# Assays:
# A498 = assay: Growth inhibition against human A498 cells assessed as total growth inhibitory concentration incubated for 48 hrs by sulforhodamine B spectrophotometric assay; type: functional
# [1] = Acute toxicity in C57BL/6 mouse assessed as change in white blood cells at 20 mg/kg,ip administration observed after 22 days; type: organism-based; settings: in vivo, 528 h, time 22 day
# [2] = Cytotoxicity against human HCT116-p53-null cells assessed as cell growth inhibition incubated for 72 hrs by MTT assay; type: functional, cell-based
# KM12 [3] = assay: Growth inhibition of human KM12 cells incubated for 48 hrs by sulforhodamine B spectrophotometric assay; type: functional
# U-251 [4] = assay: Growth inhibition against human U-251 cells assessed as lethal concentration incubated for 48 hrs by sulforhodamine B spectrophotometric assay; type: functional; settings: read-out: LC50 (the source's name)
# [5] = Cytotoxicity against human Lymphocyte cells assessed as cell growth inhibition incubated for 72 hrs by MTT assay; type: toxicity, cell-based; settings: lymphocytes
# IGROV-1 [6] = assay: Growth inhibition of human IGROV-1 cells incubated for 48 hrs by sulforhodamine B spectrophotometric assay; type: functional
# UACC-62 = assay: Growth inhibition against human UACC-62 cells assessed as total growth inhibitory concentration incubated for 48 hrs by sulforhodamine B spectrophotometric assay; type: functional
# SF-539 = assay: Growth inhibition against human SF-539 cells assessed as total growth inhibitory concentration incubated for 48 hrs by sulforhodamine B spectrophotometric assay; type: functional
# [7] = Cytotoxicity against human HaCaT cells assessed as cell growth inhibition incubated for 72 hrs by MTT assay; type: toxicity, cell-based; settings: HaCaT cells
# NCI-H460 = assay: Growth inhibition of human NCI-H460 cells incubated for 48 hrs by sulforhodamine B spectrophotometric assay; type: functional
# COLO 205 = assay: Growth inhibition of human COLO 205 cells incubated for 48 hrs by sulforhodamine B spectrophotometric assay; type: functional
# [8] = Acute toxicity in C57BL/6 mouse assessed as ratio of neutrophil to lymphocyte count at 20 mg/kg,ip administration and observed after 22 days; type: organism-based; settings: in vivo, 528 h, time 22 day
# [9] = Acute toxicity in C57BL/6 mouse assessed as ratio of liver weight to body weight at 20 mg/kg,ip administration and observed after 22 days (reference value: 5.22 +/- 0.42); type: organism-based; settings: in vivo, 528 h, time 22 day
# PC-3 = assay: Growth inhibition against human PC-3 cells assessed as lethal concentration incubated for 48 hrs by sulforhodamine B spectrophotometric assay; type: functional; settings: read-out: LC50 (the source's name)
# HL-60 = assay: Growth inhibition of human HL-60 cells incubated for 48 hrs by sulforhodamine B spectrophotometric assay; type: functional
# M14 [10] = assay: Growth inhibition against human M14 cells assessed as lethal concentration incubated for 48 hrs by sulforhodamine B spectrophotometric assay; type: functional; settings: read-out: LC50 (the source's name)
# MCF7 [11] = assay: Growth inhibition of human MCF7 cells incubated for 48 hrs by sulforhodamine B spectrophotometric assay; type: functional
# MCF7 [12] = assay: Growth inhibition against human MCF7 cells assessed as lethal concentration incubated for 48 hrs by sulforhodamine B spectrophotometric assay; type: functional; settings: read-out: LC50 (the source's name)
# NCI-H322M [13] = assay: Growth inhibition against human NCI-H322M cells assessed as total growth inhibitory concentration incubated for 48 hrs by sulforhodamine B spectrophotometric assay; type: functional
# K562 = assay: Growth inhibition against human K562 cells assessed as total growth inhibitory concentration incubated for 48 hrs by sulforhodamine B spectrophotometric assay; type: functional
# UACC-257 = assay: Growth inhibition of human UACC-257 cells incubated for 48 hrs by sulforhodamine B spectrophotometric assay; type: functional
# HCT-116 [14] = assay: Growth inhibition against human HCT-116 cells assessed as total growth inhibitory concentration incubated for 48 hrs by sulforhodamine B spectrophotometric assay; type: functional
# MOLT-4 = assay: Growth inhibition of human MOLT-4 cells incubated for 48 hrs by sulforhodamine B spectrophotometric assay; type: functional
# SK-MEL-5 = assay: Anticancer activity against human SK-MEL-5 cells assessed as cell growth at 10 uM incubated for 48 hrs by sulforhodamine B assay; type: functional; settings: read-out: Activity
# KM12 [15] = assay: Growth inhibition against human KM12 cells assessed as lethal concentration incubated for 48 hrs by sulforhodamine B spectrophotometric assay; type: functional; settings: read-out: LC50 (the source's name)
# [16] = Acute toxicity in C57BL/6 mouse assessed as lymphocyte count at 20 mg/kg,ip administration and observed after 22 days; type: organism-based; settings: in vivo, 528 h, time 22 day
# MDA-MB-231 = assay: Induction of apoptosis in human MDA-MB-231 cells assessed as increase in caspase-8 level at 10 uM incubated for 24 hrs by flow cytometry analysis; type: functional
# Malme-3M = assay: Growth inhibition of human Malme-3M cells incubated for 48 hrs by sulforhodamine B spectrophotometric assay; type: functional
# KM12 [17] = assay: Growth inhibition against human KM12 cells assessed as total growth inhibitory concentration incubated for 48 hrs by sulforhodamine B spectrophotometric assay; type: functional
# OVCAR-3 = assay: Growth inhibition against human OVCAR-3 cells assessed as lethal concentration incubated for 48 hrs by sulforhodamine B spectrophotometric assay; type: functional; settings: read-out: LC50 (the source's name)
# NCI-H322M [18] = assay: Growth inhibition of human NCI-H322M cells incubated for 48 hrs by sulforhodamine B spectrophotometric assay; type: functional
# SR = assay: Growth inhibition against human SR cells assessed as total growth inhibitory concentration incubated for 48 hrs by sulforhodamine B spectrophotometric assay; type: functional
# NCI-H226 = assay: Growth inhibition against human NCI-H226 cells assessed as total growth inhibitory concentration incubated for 48 hrs by sulforhodamine B spectrophotometric assay; type: functional
# CCRF-CEM = assay: Growth inhibition against human CCRF-CEM cells assessed as total growth inhibitory concentration incubated for 48 hrs by sulforhodamine B spectrophotometric assay; type: functional
# M14 [19] = assay: Anticancer activity against human M14 cells assessed as cell growth at 10 uM incubated for 48 hrs by sulforhodamine B assay; type: functional; settings: read-out: Activity
# U-251 [20] = assay: Growth inhibition against human U-251 cells assessed as total growth inhibitory concentration incubated for 48 hrs by sulforhodamine B spectrophotometric assay; type: functional
# [21] = Acute toxicity in C57BL/6 mouse assessed as ratio of spleen weight to body weight at 20 mg/kg,ip administration and observed after 22 days (reference value: 0.53 +/- 0.18); type: organism-based; settings: in vivo, 528 h, time 22 day
# NCI-H522 = assay: Growth inhibition against human NCI-H522 cells assessed as lethal concentration incubated for 48 hrs by sulforhodamine B spectrophotometric assay; type: functional; settings: read-out: LC50 (the source's name)
# RPMI-8226 = assay: Growth inhibition against human RPMI-8226 cells assessed as lethal concentration incubated for 48 hrs by sulforhodamine B spectrophotometric assay; type: functional; settings: read-out: LC50 (the source's name)
# IGROV-1 [22] = assay: Growth inhibition against human IGROV-1 cells assessed as lethal concentration incubated for 48 hrs by sulforhodamine B spectrophotometric assay; type: functional; settings: read-out: LC50 (the source's name)
# HCT-116 [23] = assay: Growth inhibition of human HCT-116 cells incubated for 48 hrs by sulforhodamine B spectrophotometric assay; type: functional
# [24] = Acute toxicity in C57BL/6 mouse assessed as ratio of heart weight to body weight at 20 mg/kg,ip administration and observed after 22 days (reference value: 0.62 +/- 0.08); type: organism-based; settings: in vivo, 528 h, time 22 day
# RXF 393 = assay: Growth inhibition of human RXF 393 cells incubated for 48 hrs by sulforhodamine B spectrophotometric assay; type: functional
# NCI-H322M [25] = assay: Anticancer activity against human NCI-H322M cells assessed as cell growth at 10 uM incubated for 48 hrs by sulforhodamine B assay; type: functional; settings: read-out: Activity
# SW-620 = assay: Growth inhibition against human SW620 cells assessed as total growth inhibitory concentration incubated for 48 hrs by sulforhodamine B spectrophotometric assay; type: functional
smiles,measurement,setting,value
O=C1C2=C(C(=O)c3c(O)cccc31)C(c1ccco1)c1sc(=O)[nH]c1S2 (stereo unspecified),TGI,A498,9.69 µM
same,Activity,[1],Non-Toxic
same,IC50,[2],2.37 µM
same,GI50,KM12 [3],3.71 µM
same,CC50,U-251 [4],35.7 µM
same,IC50 at 72 h,[5],> 50 µM
same,GI50,IGROV-1 [6],2.51 µM
same,TGI,UACC-62,3.43 µM
same,TGI,SF-539,3.69 µM
same,IC50 at 72 h,[7],37.2 µM
same,GI50,NCI-H460,1.54 µM
same,GI50,COLO 205,1.89 µM
same,Ratio,[8],0.465
same,Ratio,[9],4.54
same,CC50,PC-3,> 100 µM
same,GI50,HL-60,1.82 µM
same,CC50,M14 [10],5.26 µM
same,GI50,MCF7 [11],1.39 µM
same,CC50,MCF7 [12],8.04 µM
same,TGI,NCI-H322M [13],3.13 µM
same,TGI,K562,> 100 µM
same,GI50,UACC-257,1.57 µM
same,TGI,HCT-116 [14],> 100 µM
same,GI50,MOLT-4,2.71 µM
same,growth at 10 µM,SK-MEL-5,-93.4%
same,CC50,KM12 [15],> 100 µM
same,Activity,[16],67.05%
same,Activity,MDA-MB-231,62.7%
same,GI50,Malme-3M,0.75 µM
same,TGI,KM12 [17],31.3 µM
same,CC50,OVCAR-3,> 100 µM
same,GI50,NCI-H322M [18],1.71 µM
same,TGI,SR,69.5 µM
same,TGI,NCI-H226,5.46 µM
same,TGI,CCRF-CEM,> 100 µM
same,growth at 10 µM,M14 [19],-97.6%
same,TGI,U-251 [20],10.1 µM
same,Ratio,[21],0.51
same,CC50,NCI-H522,26.4 µM
same,CC50,RPMI-8226,> 100 µM
same,CC50,IGROV-1 [22],38 µM
same,GI50,HCT-116 [23],2.37 µM
same,Ratio,[24],0.51
same,GI50,RXF 393,2.02 µM
same,growth at 10 µM,NCI-H322M [25],-97.7%
same,TGI,SW-620,10.5 µM
